The text below walks through data of patent publication US20080226596A1, “Therapeutic compositions and methods useful in treating hepatitis” (priority 2006, published 2008).

SMILES strings stand for the structures.

In one test the test system is WM9 transfectants. Description: Growth of WM9 transfectants, MTT assay. Type of test: cell-based, human. Conditions: 50 or 100 μg/ml, 6 days. As to the method:
(§1) NIH3T3 (Yi, et al., Blood 85, 87 (1995)), WM9 (Forsberg, et al., Proc. Nat. Acad Sci. USA 90, 393 (1993)), DU145 (Mickey, et al., Cancer Res. 37, 4049 (1977)), LoVo (Drewinko, et al., Cancer Res. 36, 467 (1976)), HEY (Buick, et al., Cancer Res. 45, 3668 (1985)), U251 (Yoshida, et al., Cancer 50, 410 (1982)), A549 (Giard, et al., J. Natl. Cancer Inst. 51, 1417 (1973)) and SK-N-SH (Helson, et al., Cancer Res. 35, 2594 (1975)) cell lines have been described and were cultured in RPMI 1640 supplemented with 10% fetal calf serum (FCS). For measurement of sodium stibogluconate effects on cell growth in vitro, cells were cultured in the absence (−) or presence (+) of various amounts of sodium stibogluconate for 6 days with viable cells quantified by MTT assays (Mosmann, J. Immunol. Methods 65, 55 (1983)). Percentages of growth inhibition by sodium stibogluconate were calculated (.+−.x
The effects of sodium stibogluconate on intracellular PTPases were assessed using NIH3T3 or WM9 transfectants. NIH3T3 or WM9 cells were transfected with the pBabepuro vector (V) or pBabepuro expression constructs of Flag-tagged PRLs using Lipofectamine (BRL) following the manufacturer's procedures. […]

The next test deals with DR cells. Kind of test: DR lymphoma cell growth, MTT assay. Type of test: cell-based, human. Conditions: 100 μg/ml, day 6. On the procedure:
For cell proliferation assays, cells were grown in 10% FCS culture medium containing various amounts of IFNs and/or sodium stibogluconate in 96 well plates and cultured at 37° C. for 3 or 6 days as indicated. The numbers of viable cells in proliferation assays were determined by MTT assays as described in Phatak et al., J. Immunol. 167, 3391 (2001).

For a further test, the system named is SK-N-SH cells. Kind of test: SK-N-SH neuroblastoma cell growth, MTT assay. The format is cell-based, human. Conditions: 100 μg/ml, day 6. As to the method: as §1
A further test relates to Baf3 cells. Description: Cellular protein tyrosine phosphorylation in Baf3 cells (Western blot). The following applies: IL-3-deprived Baf3 cells. The format is cell-based, murine. As to the method: For induction of cellular protein phosphorylation by sodium stibogluconate or pervanadate, Baf3 cells were incubated in 0.1% FCS-RPMI 1640 medium at 37° C. for 16 hours. The cells were then washed twice in RPMI 1640 medium and incubated with sodium stibogluconate or pervanandate (0.1 mM) for various times prior to termination by lysing cells in cold lysis buffer (50 mM Tris, pH 7.4; 150 mM NaCl; 0.2 mM Na3VO4; 20 mm NaF; 1% Nonidet P-40; 2 mM PMSF; 20 µg/ml of Aprotinin and 1 mM of sodium molybdic acid). To determine the effect of sodium stibogluconate or potassium antimonyl tartrate on IL-3-induced Jak/Stat phosphorylation, Baf3 cells were deprived of the growth factor for 16 hours in 0.1% FCS RPMI 1640 medium and then incubated with or without sodium stibogluconate or potassium antimonyl tartrate for 10 minutes. IL-3 was next added to the cell suspension and incubated for various times. The Cells were then harvested and lysed in cold lysis buffer at 4° C. for 45 minutes. Total cell lysates (TCL) were separated in SDS-PAGE gels, blotted onto nitrocellulose membrane (Schleicher & Schuell), probed with specific antibodies and detected using an enhanced chemiluminescence kit (ECL, Amersham, Arlington Heights, Ill.).

A further test deals with T1, intracellular Flag-PRL-1 (Homo sapiens, UniProt Q93096).
T1 construct: expressed in transfected cells; host or cells: NIH3T3 (A51) or WM9 (A61) transfectants, pBabepuro vector
T1 sequence (Q93096 whole entry): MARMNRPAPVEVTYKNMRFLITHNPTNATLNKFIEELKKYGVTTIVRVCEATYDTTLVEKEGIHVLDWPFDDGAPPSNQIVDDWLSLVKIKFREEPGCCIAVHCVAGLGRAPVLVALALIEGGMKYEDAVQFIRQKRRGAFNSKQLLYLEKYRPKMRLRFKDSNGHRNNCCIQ
Description: Immunocomplex PTPase assay, Flag-PRL-1 NIH3T3 transfectants. Type of test: cell-based, mouse. The following applies: 5 min treatment. As to the method: Immunocomplex PTPase assays were performed to assess the effects of sodium stibogluconate on intracellular PTPases. Cells were untreated or treated with sodium stibogluconate for 5 minutes, washed with fresh medium and then lysed in cold lysis buffer (50 mM Tris, pH 7.4; 150 mM NaCl; 1% NP40; 2 mM PMSF; 20, g/ml of Aprotinin). The lysates were incubated with an anti-Flag antibody in immunoprecipitation assays. The immunocomplexes were collected with protein G sepharose beads (Pharmacia) and washed in cold lysis buffer for 4 times. […] 100 µL of malachite green solution (UBI) was added to each reaction prior to measurement of OD660 to quantify the amounts of free phosphate cleaved by the PTPases from the peptide substrate (Pathak et al., J. Imumol. 167, 3391 (2001)). The remaining 10% contents of individual samples were analyzed by SDS-PAGE/Western blotting to quantify the relative amounts of the phosphatase proteins. […]
The effects of sodium stibogluconate on intracellular PTPases were assessed using NIH3T3 or WM9 transfectants. […]

The next test has as its target T2, SHP-1 (Mus musculus, UniProt P29351).
T2 construct: made in house
Description: Reversibility of SHP-1 inhibition (washing of bead-bound GST/SHP-1). Type of test: biochemical. The following applies: pre-incubated 4° C. 30 minutes, washed 3 times. The text has this: The beads were then either subjected to in vitro PTPase assays or washed 3 times in Tris buffer then subjected to in vitro PTPase assays.

The subject of another test is HEY cells. Kind of test: HEY ovarian cancer cell growth, MTT assay. The following applies: 100 μg/ml, day 6. The format is cell-based, human. As to the method:
as §1

T2 sequence (P29351 whole entry): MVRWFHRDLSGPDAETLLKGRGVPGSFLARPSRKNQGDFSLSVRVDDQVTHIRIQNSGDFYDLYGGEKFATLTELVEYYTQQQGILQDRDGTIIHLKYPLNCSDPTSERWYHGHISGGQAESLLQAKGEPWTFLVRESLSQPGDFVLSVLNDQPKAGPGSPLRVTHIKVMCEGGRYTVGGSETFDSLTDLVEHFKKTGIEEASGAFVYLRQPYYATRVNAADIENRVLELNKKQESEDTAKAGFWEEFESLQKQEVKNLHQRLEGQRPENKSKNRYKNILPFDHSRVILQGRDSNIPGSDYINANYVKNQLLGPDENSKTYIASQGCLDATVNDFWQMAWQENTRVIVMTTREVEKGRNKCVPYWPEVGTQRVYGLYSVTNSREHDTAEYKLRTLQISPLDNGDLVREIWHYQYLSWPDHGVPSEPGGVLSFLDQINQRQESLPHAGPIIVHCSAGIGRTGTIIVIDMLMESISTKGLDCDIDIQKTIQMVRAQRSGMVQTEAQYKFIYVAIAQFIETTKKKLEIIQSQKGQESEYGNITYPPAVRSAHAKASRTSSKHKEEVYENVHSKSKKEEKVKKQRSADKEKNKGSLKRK

Consider `O.O.O.O.O.O.O.O.O.O=C([O-])[C@@H]1[O][Sb]2([O-])([O][Sb]34([OH])[O][C@H]([C@H](O)CO)[C@H]([O]3)[C@H](C(=O)[O-])[O]4)[O][C@H]([C@H](O)CO)[C@@H]1[O]2.[Na+].[Na+].[Na+]` [sodium stibogluconate], for which the “growth of R86 cells” value with WM9 transfectants is recorded as “only modest growth inhibition”. Further, in the test on DR cells, the “killing of DR cells” value is “complete or near complete killing”. For the same compound, the “killing of SK-N-SH cells” value in the test with SK-N-SH cells is reported as “near-complete cell killing”. Besides, the “cellular protein tyrosine phosphorylation” value in the test on Baf3 cells is “induced protein tyrosine phosphorylation”. Besides, the “PTPase activity of Flag-PRL-1 immunocomplexes from treated cells” value on intracellular Flag-PRL-1 is given as “little PTPase activities”. Moreover, the “inhibition of GST/SHP-1 after washing” value on SHP-1 is “not affected by washing”. The “killing of HEY cells” value with HEY cells was “near-complete cell killing”.
